US20240317708A1, “INHIBITORS OF TRANSGLUTAMINASES” (ZEDIRA GMBH, priority 2021, published 2024)

What was measured:
[1] = target: T1, recombinant human transglutaminase 2 (Homo sapiens, UniProt P21980); assay: Transglutaminase assay (dansylcadaverine incorporation into dimethylcasein, DCC-assay); type: biochemical; settings: recombinant human TG2 10 nM, dansylcadaverine/dimethylcasein, 37° C.
T1 construct: purchased Zedira T022
T1 sequence (P21980 1-687): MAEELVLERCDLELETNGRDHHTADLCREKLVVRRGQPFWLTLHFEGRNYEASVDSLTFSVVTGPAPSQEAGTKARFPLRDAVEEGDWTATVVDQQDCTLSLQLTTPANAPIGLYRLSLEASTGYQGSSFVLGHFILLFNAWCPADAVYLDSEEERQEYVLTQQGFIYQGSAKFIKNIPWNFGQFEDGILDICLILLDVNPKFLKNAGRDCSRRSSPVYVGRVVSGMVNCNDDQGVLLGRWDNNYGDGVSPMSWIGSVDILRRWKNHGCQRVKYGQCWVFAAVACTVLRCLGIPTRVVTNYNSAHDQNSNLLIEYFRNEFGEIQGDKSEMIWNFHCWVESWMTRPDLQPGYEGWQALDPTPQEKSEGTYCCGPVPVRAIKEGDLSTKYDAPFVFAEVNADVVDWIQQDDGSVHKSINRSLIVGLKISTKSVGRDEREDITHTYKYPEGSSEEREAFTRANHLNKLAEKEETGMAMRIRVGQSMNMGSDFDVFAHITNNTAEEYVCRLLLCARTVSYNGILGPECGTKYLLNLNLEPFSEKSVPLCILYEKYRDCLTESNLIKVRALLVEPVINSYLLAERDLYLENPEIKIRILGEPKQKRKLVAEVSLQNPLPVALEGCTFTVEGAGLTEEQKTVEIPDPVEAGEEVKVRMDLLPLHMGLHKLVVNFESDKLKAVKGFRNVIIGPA
Protocol: For the determination of potency of inhibitors against tissue transglutaminase, the incorporation of dansylcadaverine into dimethylcasein (Zedira product T036, Lorand et al., Anal Biochem, 1971, 44:221-31) was measured using recombinant human transglutaminase 2 (Zedira Product T022).
The tissue transglutaminase is diluted in buffer (50 mM Tris-HCl, 7.5 mM CaCl2, 150 mM NaCl, pH=7.4). The final concentration of TG2 in the assay is 10 nM.
A 10 mM inhibitor stock solution is prepared in DMSO, and from this a serial 1:2-fold dilution series is prepared also in DMSO. Each of the initial dilutions is subsequently diluted 1:50-fold with buffer (50 mM Tris-HCl, 7.5 mM CaCl2, 150 mM NaCl, pH=7.4) to yield the final working dilutions containing 2% (v/v) DMSO.
15 μl of inhibitor working dilution are added per well of a 96 well microtiter plate. As control, 15 μl of a 2% (v/v) DMSO solution prepared using the buffer mentioned above are added per well.
Immediately before starting the assay, 600 μl transglutaminase working solution are added to 11.4 ml assay buffer (50 mM Tris-HCl, 10 mM CaCl2, 10 mM glutathione, 2.5% glycerol, 16.7 μM dansylcadaverine, 4 μM N,N-dimethylcasein, 200 mM NaCl, pH=8.0). 285 μl of this reaction mix are added per well containing the inhibitor.
Increase in fluorescence is measured using λex=330 nm and λem=500 nm at 37° C. for 30 min. A slope of the increase in fluorescence between 20 and 30 min is calculated for determination of the IC50 value (inhibitor concentration at which 50% of the initial activity is blocked).
Analysis of enzymatic activity is performed by calculation of the slope of an increase in fluorescence intensity. IC50 values are calculated by plotting the enzymatic activity (as percentage from control containing 2% DMSO instead of inhibitor) against the inhibitor concentration. IC50 is defined as the inhibitor concentration blocking 50% of initial enzyme activity.

[2] = Caco-2 permeability assay (CacoReady kit); type: in vitro ADME; settings: human
Protocol: Permeability coefficients (Papp values) were obtained from Caco-2 barrier studies predicting oral/intestinal bioavailability of the tested compounds. The assays were performed by using CacoReady™ ready-to-use kits from ReadyCell according to the manufacturers protocol.

[3] = Log D shake flask method (octanol / PBS pH 7.4, HPLC); type: physicochemical; settings: octanol/phosphate-buffered saline (PBS); octanol / PBS pH 7.4, shake flask
Protocol: In order to classify the inventive compounds according to their lipophilicity, Log D values (distribution coefficient) were determined by means of the well-established shake flask method, measuring the partition of a compound between an octanol and phosphate-buffered saline (PBS, pH 7.4) by HPLC.

IC50 [1]	Papp [2]	logD [3]	Compound
< 25 nM	< 1 ×10⁻⁶ cm/s	1 to 3	COC(=O)/C=C/CC[C@H](NC(=O)c1snnc1C)C(=O)Nc1cccn(CC(=O)N[C@H]2C[C@H]3CC[C@]2(C)C3(C)C)c1=O [III-120, (S,E)-methyl 6-(4-methyl-1,2,3-thiadiazole-5-carboxamido)-7-oxo-7-(2-oxo-1-(2-oxo-2-((1R,2S,4R)-1,7,7-trimethylbicyclo[2.2.1]heptan-2-ylamino)ethyl)-1,2-dihydropyridin-3-ylamino)hept-2-enoate]
< 25 nM	< 1 ×10⁻⁶ cm/s	1 to 3	COC(=O)/C=C/CC[C@H](NC(=O)c1cncn1C)C(=O)Nc1cccn(CC(=O)NC2C3CC4CC(C3)CC2C4)c1=O (stereo partly drawn) [III-1, (S,E)-methyl 7-(1-(2-(2-adamantylamino)-2-oxoethyl)-2-oxo-1,2-dihydropyridin-3-ylamino)-6-(1-methyl-1H-imidazole-5-carboxamido)-7-oxohept-2-enoate]
25 to 250 nM	< 1 ×10⁻⁶ cm/s	3 to 5	COC(=O)/C=C/CC[C@H](NC(=O)[C@@H]1CCCN1C)C(=O)Nc1cccn(CC(=O)NC2C3CC4CC(C3)CC2C4)c1=O (stereo partly drawn) [III-25, (S,E)-methyl 7-(1-(2-(2-adamantylamino)-2-oxoethyl)-2-oxo-1,2-dihydropyridin-3-ylamino)-6-((S)-1-methylpyrrolidine-2-carboxamido)-7-oxohept-2-enoate]
< 25 nM	< 1 ×10⁻⁶ cm/s	1 to 3	COC(=O)/C=C/CC[C@H](NC(=O)c1cnnn1C)C(=O)Nc1cccn(CC(=O)NC23CC4CC(C)(CC(C)(C4)C2)C3)c1=O [III-114, (S,E)-methyl 7-(1-(2-(3,5-dimethyladamantane-1-amino)-2-oxoethyl)-2-oxo-1,2-dihydropyridin-3-ylamino)-6-(1-methyl-1H-1,2,3-triazole-5-carboxamido)-7-oxohept-2-enoate]

Further lines, the compound ahead of its results:

Compound	IC50 [1]	Papp [2]	logD [3]
Cc1oc(Br)cc1C(=O)N[C@@H](CC/C=C/C(=O)Nc1ccccc1)C(=O)Nc1cccn(CC(=O)NC23CC(C2)C3)c1=O [III-152, (S,E)-N7-(1-(2-(bicyclo[1.1.1]pentan-1-ylamino)-2-oxoethyl)-2-oxo-1,2-dihydropyridin-3-yl)-6-(5-bromo-2-methylfuran-3-carboxamido)-N1-phenylhept-2-enediamide]	25 to 250 nM	1 to 10 ×10⁻⁶ cm/s	1 to 3
COC(=O)/C=C/CC[C@H](NC(=O)c1oc2ccccc2c1C)C(=O)Nc1cccn(CC(=O)NC23CC4CC(CC(Cl)(C4)C2)C3)c1=O [III-52, (S,E)-methyl 7-(1-(2-(3-chloroadamantan-1-amino)-2-oxoethyl)-2-oxo-1,2-dihydropyridin-3-ylamino)-6-(3-methylbenzofuran-2-carboxamido)-7-oxohept-2-enoate]	< 25 nM	1 to 10 ×10⁻⁶ cm/s	3 to 5
Cc1c(C(=O)N[C@@H](CC/C=C/C(=O)N(C)C)C(=O)Nc2cccn(CC(=O)NC3C4CC5CC(C4)CC3C5)c2=O)oc2ccccc12 (stereo partly drawn) [III-75, (S,E)-N^7-(1-(2-(2-adamantylamino)-2-oxoethyl)-2-oxo-1,2-dihydropyridin-3-yl)-N^1,N^1-dimethyl-6-(3-methylbenzofuran-2-carboxamido)hept-2-enediamide]	25 to 250 nM	1 to 10 ×10⁻⁶ cm/s	3 to 5
COC(=O)/C=C/CC[C@H](NC(=O)c1ccc2occc2c1)C(=O)Nc1cccn(CC(=O)NC2C3CC4CC2CC(NC(C)=O)(C4)C3)c1=O (stereo partly drawn) [III-165, (S,E)-methyl 6-(benzofuran-5-carboxamido)-7-(1-(2-(1-acetylamino-4-aminoadamantane)-2-oxoethyl)-2-oxo-1,2-dihydropyridin-3-ylamino)-7-oxohept-2-enoate]	25 to 250 nM	< 1 ×10⁻⁶ cm/s	1 to 3
COC(=O)/C=C/CC[C@H](NC(=O)[C@@H]1CCCN1C(C)=O)C(=O)Nc1cccn(CC(=O)NC2C3CC4CC(C3)CC2C4)c1=O (stereo partly drawn) [III-21, (S,E)-methyl 6-((S)-1-acetylpyrrolidine-2-carboxamido)-7-(1-(2-(2-adamantylamino)-2-oxoethyl)-2-oxo-1,2-dihydropyridin-3-ylamino)-7-oxohept-2-enoate]	< 25 nM	< 1 ×10⁻⁶ cm/s	1 to 3
